Consider five molecules from ChEMBL document CHEMBL1649567, “Characterization of the plasmid-borne quinolone resistance gene qnrB19 in Salmonella enterica serovar Typhimurium” (2009).

The term MIC denotes the lowest concentration that inhibits growth of the organism. Low values mean a more susceptible organism, high ones a less susceptible organism.

Test [1] concerns Salmonella typhimurium. Briefly: Antimicrobial activity against Salmonella enterica serovar Typhimurium transconjugant p61/9T expressing qnrB19 gene variant carried by IncL/M-like plasmid by Etest. The class given is functional, Salmonella enterica subsp. enterica serovar Typhimurium.
Another test concerns Escherichia coli. Briefly: Antimicrobial activity against Escherichia coli CSH26RifR receiving qnrB19 gene variant carried by IncL/M-like plasmid from Salmonella enterica serovar Typhimurium STYM61/9 by Etest. Format: functional.
Test [2] concerns Salmonella typhimurium. Put plainly: Antimicrobial activity against Salmonella enterica serovar Typhimurium STYM61/9 expressing qnrB19 gene variant carried by IncL/M-like plasmid by Etest. Format: functional, Salmonella enterica subsp. enterica serovar Typhimurium.

≈ marks a conversion by molar mass, not a printed value.

On to `CCn1cc(C(=O)O)c(=O)c2ccc(C)nc21` [NALIDIXIC ACID], for which the MIC in the test with Salmonella typhimurium [1] stood at 16 µg/mL (≈ 68.9 µM); with Escherichia coli, 4 µg/mL (≈ 17.2 µM); against Salmonella typhimurium [2], 12 µg/mL (≈ 51.7 µM).

For the molecule `COc1c(N2C[C@@H]3CCCN[C@@H]3C2)c(F)cc2c(=O)c(C(=O)O)cn(C3CC3)c12` [MOXIFLOXACIN], the figures for the MIC against Salmonella typhimurium [1], against Escherichia coli and against Salmonella typhimurium [2] were 0.5 µg/mL (≈ 1.25 µM), 0.047 µg/mL (≈ 0.117 µM) and 0.5 µg/mL (≈ 1.25 µM), respectively.

For the molecule `CCn1cc(C(=O)O)c(=O)c2cc(F)c(N3CCNCC3)cc21` [NORFLOXACIN], the MIC in the test with Salmonella typhimurium [1] worked out at 0.5 µg/mL (≈ 1.57 µM); against Escherichia coli it was 0.064 µg/mL (≈ 0.2 µM); in the test on Salmonella typhimurium [2] it was 1 µg/mL (≈ 3.13 µM).

`O=C(O)c1cn(C2CC2)c2cc(N3CCNCC3)c(F)cc2c1=O` [CIPROFLOXACIN]: the MIC came out at 0.19 µg/mL (≈ 0.573 µM) against Salmonella typhimurium [1] and 0.38 µg/mL (≈ 1.15 µM) against Salmonella typhimurium [2].

With `CC1COc2c(N3CCN(C)CC3)c(F)cc3c(=O)c(C(=O)O)cn1c23` (centres undefined) [OFLOXACIN], the MIC against Salmonella typhimurium [1] is 0.75 µg/mL (≈ 2.08 µM); with Escherichia coli, 0.064 µg/mL (≈ 0.177 µM); against Salmonella typhimurium [2], 0.75 µg/mL (≈ 2.08 µM).
